Laboratory results reported in US11173144B2, “Adrenergic receptor modulating compounds and methods of using the same” (The Board of Trustees of the Leland Stanford Junior …, priority 2016, dated 2021).
Like-named read-outs stand apart in the source and are kept apart here.

Legend:
[1] = molecular target: ADRB1 (Homo sapiens (Human), UniProt P08588); test: cAMP assay (homogenous time-resolved fluorescence) in HEK-293 cells stably expressing human recombinant ADRB1; type: cell-based; conditions: Table 4
ADRB1, sequence (P08588 whole entry): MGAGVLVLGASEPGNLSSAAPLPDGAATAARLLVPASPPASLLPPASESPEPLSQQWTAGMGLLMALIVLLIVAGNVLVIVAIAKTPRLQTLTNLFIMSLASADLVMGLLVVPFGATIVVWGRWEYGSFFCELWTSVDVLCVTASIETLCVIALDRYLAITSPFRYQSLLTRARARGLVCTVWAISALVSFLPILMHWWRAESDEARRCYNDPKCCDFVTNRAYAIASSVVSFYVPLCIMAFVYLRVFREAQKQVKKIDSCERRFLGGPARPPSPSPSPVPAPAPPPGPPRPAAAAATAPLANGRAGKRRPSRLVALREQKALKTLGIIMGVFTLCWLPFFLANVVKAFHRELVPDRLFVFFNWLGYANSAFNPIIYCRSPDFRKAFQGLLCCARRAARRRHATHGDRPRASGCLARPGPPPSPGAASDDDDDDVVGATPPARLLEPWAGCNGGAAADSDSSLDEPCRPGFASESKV
Experimental: Pharmacological effects of compounds at the cAMP pathway mediated by ADRB1 are evaluated by measuring cAMP production using the homogenous time-resolved fluorescence detection method with HEK-293 cells stably expressing human recombinant ADRB1. Briefly, cells are suspended in HBSS buffer completed with 20 mM HEPES (pH 7.4) and 500 μM IBMX (3-isobutyl-1-methylxanthine) and distributed at a density of 3×10^3 cells/well. […] The results are expressed as a percent of the maximum efficacy achieved with isoproterenol. Pharmacological effects of compounds at the cAMP pathway mediated by ADRB2 and ADRB3 are measured as described above using CHO cells stably expressing human recombinant ADRB2 and human SK-N-MC neurotumor cells endogenously expressing ADRB3, respectively.
After 30 minute incubation with compounds, the cells are lysed and the fluorescence donor (Europium-chelated-labeled cAMP tracer; Eu-cAMP tracer) and fluorescence acceptor (cAMP-specific monoclonal antibodies labeled with the ULight™ dye) are added. […] The results are expressed as a percent of the control response to 10 μM isoproterenol. For subtype selectivity determination, same procedure is performed using Chinese hamster ovary (CHO) cells stably expressing human β2-adrenergic receptors or SK-N-MC human neuroblastoma cell line expressing β3-adrenergic receptors.
ADRB1 EC50 from functional assay (nM)^a, Determined using the homogenous time-resolved fluorescence detection method with HEK-293 cells stably expressing human recombinant ADRB1. ADRB2 IC50 from binding assay(nM)^b, Determined using the Tag-lite Adrenoceptor Beta2 receptor ligand binding assay.

[2] = test system: LPS-induced TNF-α response; test: In vivo LPS assay; design: species or system C57BI/6J mice; conditions: mice, 3 mg/kg 15 min prior to LPS, 90 min post-LPS
Experimental: Amplification is performed using StepOnePlus (Applied Biosystems).
Following injections, mice are single-housed. At 90 min post-LPS/saline, mice are deeply anesthetized with isoflurane and blood is collected from the right ventricle via cardiac puncture (23 g needle) into lithium heparin-containing vials (BD microtainer plasma tubes). Plasma is separated by centrifugation (11,000 rpm for 3 minutes) within 30 min of collection and stored at −80° C. until analysis. The concentration of TNF-α in the collected plasma is measured by ELISA (Invitrogen, KMC3012) according to the manufacturer's instruction.

[3] = Pharmacokinetic study, 4 hour time course; type: in vivo, Sprague-Dawley rats; conditions: rat; for AUC(0-inf) / Cmax / bioavailability: Sprague-Dawley, 10 mg/kg; for AUC(0-inf): AUCinf
Experimental: Two cohorts of Sprague-Dawley rats are used in two independent studies. All animals are fasted overnight before the experiment with free access to water. In study 1, a total of 18 rats are used for a 4 h time course pharmacokinetic (PK) study. […] On the day of the experiment, xamoterol is freshly prepared in saline. […] Four hours post-dose, rats are deeply anesthetized with isoflurane and blood samples are collected by cardiac puncture. In study 2, a total of 18 rats are used for a 20 min post-dose collection study. […] At 20 min post-dose, rats are deeply anesthetized with isoflurane and blood samples are collected by cardiac puncture. Brains are collected after perfusion with phosphate buffered saline. […] LC separation is carried out on a Phenomenex Synergi Polar-RP column (2.5 μm, 2 mm×50 mm) with a flow rate of 0.25 ml/min at room temperature. Mobile phase A consisted of 10 mM ammonium acetate and 0.1% formic acid in LCMS grade water. Mobile phase B consisted of 10 mM ammonium acetate and 0.1% formic acid in LCMS grade acetonitrile: water 90:10% (v/v). […] Five μl of the extracted samples is injected. The mass spectrometer is operated in the positive mode with multiple-reaction monitoring (MRM) with the transition m/z 334.1→210.1 and 334.1→100.2.

[4] = test system: heart rate and blood pressure; test: Cardiovascular studies (heart rate and blood pressure) in anesthetized rats; type: in vivo, Sprague-Dawley rats; conditions: 3 mg/kg subcutaneous
Experimental: Adult rats are anesthetizes using isoflurane and are accommodated on a heated platform warmed to 36° C. A jugular catheter (for IV administration of the drug) and an intra-arterial catheter (tail artery, for blood pressure measurements) are implanted under 2.5% isoflurane. To avoid clotting, all animals received a single dose of heparin after intravenous cannulation. Intra-arterial catheter was then connected to a pressure transducer coupled to a computerized data acquisition system (PowerLab) and its application software (LabChart 8)[AD Instruments (Australia)]. Mean blood pressure and the hear rate was analyzed and plotted using prism software.
Briefly, rats are anesthetized with 3-4% isoflurance and 1 cm longitudinal incision is made on the ventral aspect of the tail exposing the tail artery. Polyethylene catheter (PE50) filled with heparinized saline is then inserted into the tail artery and connected to blood pressure transducer system. After assuring absence of any air bubbles, 5-10 min of baseline systolic and diastolic blood pressure along with heart rate are recorded using LabChart Pro (AD Instruments).
FIG. 9 illustrates the effect of exemplary compounds on average heart rate in a rat in comparison with reference compounds isoprenaline and ICI 118,551. FIG. 10 illustrates the effect of exemplary compounds on blood pressure in a rat in comparison with reference compounds isoprenaline and ICI 118,551.

[5] = test system: transient middle cerebral artery occlusion (tMCAO) model of stroke; test: tMCAO model of stroke, infarction volume; type: in vivo; conditions: rat tMCAO, 3 mg/kg, 21 days
Experimental: The tMCAO is performed on animal under isoflurane inhalation anesthesia (4% for induction and 1.5-2.5% for maintenance) in airoxygen mixture ratio 3:1. Ventral neck area is shaved by electric razor and disinfected using betadine followed by 70% ethanol solution. Subsequently, a midline incision is made in the ventral neck area, sharp and blunt dissection techniques are used to isolate left common carotid artery (CCA) and the internal and external carotid arteries (ICA and ECA, respectively). The proximal CCA is ligated below the bifurcation using 3-0 braided silk suture allowing enough room for filament insertion in the area between the ligation and bifurcation. Subsequently, ECA is ligated at its origin dose to the CCA bifurcation, so that the occipital artery stays proximal to the ligature. A microvessel dip is placed on ICA temporarily to avoid excessive bleeding during filament insertion. In order to occlude the origin of middle cerebral artery (MCA), a monofilament with silicon coated tip (0.39 mm diameter, 5-6 mm long) is then inserted into the CCA, the microvessel dip removed following filament advancement into the ICA 20 mm from the bifurcation through small, horizontal incision. The filament is secured in its place by a suture knot placed between the bifurcation and proximal CCA ligature. […]

Row | SMILES | Emax ([1]; HEK293, 0.5 h, percent efficacy compared to the maximum response achieved with isoproterenol, read-out: cAMP pathway % Iso max) | EC50 ([1]; read-out: cAMP pathway ADRB1 EC50) | LPS-induced TNF-α response in periphery (plasma) [2] | LPS-induced inflammatory response in the brain (TNF-α, IL-1β, IL-6 gene expression) [2] | AUC(0-inf) ([3]; in vivo, ip) | Cmax ([3]; in vivo, ip, Cmax) | AUC(0-inf) ([3]; in vivo, iv) | Cmax ([3]; in vivo, iv, Cmax) | bioavailability ([3]; in vivo, po) | Cmax ([3]; in vivo, po, 10 mg/kg PO - Portal vein, read-out: Cmax) | Cmax ([3]; in vivo, po, 10 mg/kg PO - Systemic (jugular vein), read-out: Cmax) | time of maximum concentration in systemic plasma ([3]; 10 mg/kg IP) | clearance ([3]; 4 hour time-course PK study) | effect on blood pressure [4] | effect on heart rate [4] | clearance ([3]; in vivo) | infarction volume [5]
1 | COc1ccccc1OCCNC[C@H](O)COc1ccc(O)cc1 [Compound 43] | 83.3 ± 15.7% | 10 to 100 nM | markedly inhibited | attenuated | 2160 ± 310 ng·h/mL | 762 ± 67 ng/mL | 1800 ± 256 ng·h/mL | 4000 ± 1110 ng/mL | 6% | 946 ng/mL | 116 ng/mL | 90 min | cleared more slowly | significant reduction | did not produce significant effects |  | 
2 | O=C(NCCNCC(O)COc1ccc(O)cc1)N1CCOCC1 (stereo not drawn) [Xamoterol, reference compound] |  |  |  |  | 2830 ± 517 ng·h/mL | 7440 ± 730 ng/mL | 2450 ± 601 ng·h/mL | 22200 ± 4030 ng/mL | 1.7% |  |  |  |  | significant reduction | did not produce significant effects | cleared rapidly | reduces infarction volume
